Where two headings read alike, the source gives them in different places.
Columns and labels:
[1] = Cytotoxicity studies, MDA-MB-231; assay type: cell-based; conditions: human, MDA-MB-231 breast cancer cells
Description: (§1) The cytotoxicity of some of potent compounds including 3d, 3m, 3v, and 3af was evaluated through use of the breast cancer cell line MDA-MB-231 and human pancreatic cancer cell line PANC-1.

[2] = test system: breast cancer cell line MDA-MB-231; assay: Cytotoxicity studies, MDA-MB-231; assay type: cell-based; conditions: MDA-MB-231, at concentration of 100 µM
Description: as §1

[3] = target: T1, α-glucosidase (Saccharomyces cerevisiae, UniProt P53341); assay: Enzyme kinetic studies (Lineweaver-Burk and secondary plots); assay type: biochemical; conditions: for inhibition type: Lineweaver-Burk plot: Km increased, Vmax unchanged; for Ki: estimated from plot of Km versus inhibitor concentration, read-out: inhibition constant, Ki
T1 construct: purchased Sigma-Aldrich
Description: The inhibition mode of the synthesized compounds 3 against α-glucosidase was investigated. […]. The inhibition type was indicated on the basis of Michaelis-Menten and Lineweaver-Burk plots. […] […]. The […] of enzyme solution (1 U/mL) was incubated with different concentrations (0, 5, 10, and 15 µM) of selected compounds for 15 min at 30 °C. The reaction was then started by adding different concentrations of substrate (p-nitrophenyl glucopyranoside, 1-10 mM), and change in absorbance was measured for 20 min at 405 nm by using spectrophotometer (Gen5, Power wave xs2, BioTek, America).

[4] = target: T2, α-glucosidase (Saccharomyces cerevisiae, EC.3.2.1.20) (Saccharomyces cerevisiae, UniProt P53341); assay: biochemical; assay type: biochemical; conditions: for IC50: mean ± SD, at least three experiments, read-out: IC50 (µM), in vitro α-glucosidase inhibitory activity
T2 construct: purchased Sigma-Aldrich
Description: α-Glucosidase enzyme (EC3.2.1.20, Saccharomyces cerevisiae, 20 U/mg) and substrate (p-nitrophenyl glucopyranoside) were purchased from Sigma-Aldrich. […] Finally, the change in absorbance was measured at 405 nm by using spectrophotometer (Gen5, Power wave xs2, BioTek, America). DMSO (10% final concentration) and acarbose were used respectively as control and standard drug. The percentage of enzyme inhibitionwas calculated and IC50 values were obtained from non-linear regression curve using the Logit method.

[5] = test system: human pancreatic cancer cell line PANC-1; assay: Cytotoxicity studies, PANC-1; assay type: cell-based; conditions: PANC-1, at concentration of 100 µM
Description: as §1

[6] = Cytotoxicity studies, PANC-1; assay type: cell-based, human; conditions: human, PANC-1 pancreatic cancer cells
Description: as §1

T1 sequence (P53341 whole entry): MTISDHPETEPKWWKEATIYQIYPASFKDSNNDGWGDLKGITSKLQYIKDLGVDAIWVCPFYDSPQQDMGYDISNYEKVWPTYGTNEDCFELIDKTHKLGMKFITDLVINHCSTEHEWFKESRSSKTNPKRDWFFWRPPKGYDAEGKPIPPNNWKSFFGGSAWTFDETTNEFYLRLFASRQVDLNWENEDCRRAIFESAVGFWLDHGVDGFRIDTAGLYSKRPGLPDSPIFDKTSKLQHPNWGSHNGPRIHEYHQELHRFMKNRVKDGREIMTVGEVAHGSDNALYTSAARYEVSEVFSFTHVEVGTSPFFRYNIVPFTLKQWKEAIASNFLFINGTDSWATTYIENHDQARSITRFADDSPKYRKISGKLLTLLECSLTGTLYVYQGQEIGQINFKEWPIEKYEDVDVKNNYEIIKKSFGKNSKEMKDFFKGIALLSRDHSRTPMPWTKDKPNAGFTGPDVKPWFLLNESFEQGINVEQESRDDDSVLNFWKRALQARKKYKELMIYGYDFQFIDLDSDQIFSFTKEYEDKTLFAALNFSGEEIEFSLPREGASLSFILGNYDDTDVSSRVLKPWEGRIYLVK
T2 sequence (P53341 whole entry): as above

Compound | IC50 [1] [µM] | cytotoxic activity [2] | melting point [°C] | inhibition type [3] | Ki [3] [µM] | IC50 ([4]; Table 2, compounds 3aa-ai) [µM] | cytotoxic activity [5] | IC50 [6] [µM] | IC50 ([4]; Table 1, compounds 3a-z) [µM] | fold more potent than acarbose ([4]; ratio of α-glucosidase IC50 values vs acarbose)
CCOC(=O)c1c(-c2ccccc2)nn2c(-c3ccc(Cl)cc3)c(N)c(-c3ccc(OC)cc3)nc12 [3af, Ethyl 6-amino-7-(4-chlorophenyl)-5-(4-methoxyphenyl)-2-phenylpyrazolo[1,5-a]pyrimidine-3-carboxylate] | > 200 | did not possess any cytotoxic activity | 226 to 228 | competitive inhibition | 65 | 65.5 ± 3 | did not possess any cytotoxic activity | > 200 | – | –
Cc1ccc(-c2nc3c(C(=O)Nc4ccccc4)c(Nc4ccccc4)nn3c(-c3ccc(Br)cc3)c2N)cc1 [3d, 6-Amino-7-(4-bromophenyl)-N-phenyl-2-(phenylamino)-5-p-tolylpyrazolo[1,5-a]pyrimidine-3-carboxamide] | > 200 | did not possess any cytotoxic activity | – | competitive inhibition | 12 | – | did not possess any cytotoxic activity | > 200 | 15.2 ± 0.4 | around 50 fold

Reference: paper PMC7018746, “An efficient and targeted synthetic approach towards new highly substituted 6-amino-pyrazolo[1,5-a]pyrimidines with α-glucosidase inhibitory activity” (Scientific Reports, 2020)
